Test results reported in PubChem BioAssay (NCI).
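48-hour exposure; five concentrations; linearly interpolated endpoints. GI50: concentration for 50% inhibition of growth. TGI marks complete inhibition of growth.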

Key:
Experiment in all cases: growth of human tumour cells (NCI), 48 h
[1] = system: PC-3 prostate
[2] = system: HL-60(TB) leukemia
[3] = system: HOP-62 NSCLC
[4] = system: BT-549 breast
[5] = system: COLO 205 colon
[6] = system: SK-OV-3 ovarian
[7] = system: SN12C renal
[8] = system: OVCAR-3 ovarian
[9] = system: NCI/ADR-RES ovarian
[10] = system: MOLT-4 leukemia
[11] = system: OVCAR-4 ovarian
[12] = system: LOX IMVI melanoma
[13] = system: T-47D breast
[14] = system: RPMI-8226 leukemia
[15] = system: HT29 colon
[16] = system: UACC-62 melanoma
[17] = system: IGROV1 ovarian
[18] = system: MDA-MB-231 breast
[19] = system: OVCAR-8 ovarian
[20] = system: CCRF-CEM leukemia
[21] = system: NCI-H23 lung
[22] = system: NCI-H522 lung
[23] = system: CAKI-1 renal
[24] = system: SF-539 CNS
[25] = system: SK-MEL-28 melanoma
[26] = system: HS 578T breast
[27] = system: RXF 393 renal
[28] = system: HOP-92 NSCLC
[29] = system: K-562 leukemia
[30] = system: SNB-75 CNS
[31] = system: MALME-3M melanoma
[32] = system: U251 CNS
[33] = system: MDA-MB-435
[34] = system: UO-31 renal
[35] = system: A549 NSCLC
[36] = system: MCF7 breast
[37] = system: 786-0 renal
[38] = system: SK-MEL-2 melanoma
[39] = system: TK-10 renal
[40] = system: SNB-19 CNS
[41] = system: HCT-116 colon
[42] = system: NCI-H460 lung
[43] = system: DU-145 prostate
[44] = system: UACC-257 melanoma
[45] = system: SR leukemia
[46] = system: OVCAR-5 ovarian
[47] = system: SK-MEL-5 melanoma
[48] = system: NCI-H226 lung
[49] = system: ACHN renal
[50] = system: EKVX NSCLC
[51] = system: KM12 colon
[52] = system: SF-268 CNS
[53] = system: SF-295 CNS
[54] = system: SW-620 colon
[55] = system: HCT-15 colon
[56] = system: M14 melanoma

What does the source list for `Cc1ccc(NC2=N[C@]34CC(=O)CC[C@]3(C)[C@H]3CC[C@]5(C)C(=O)CC[C@H]5[C@@H]3C[C@@H]4S2)c(C)c1`?
GI50 [1]: 1.86 µM; TGI [1]: 4.53 µM; GI50 [2]: 2.47 µM; TGI [2]: 6.03 µM; GI50 [3]: 2.43 µM; TGI [3]: 6.92 µM; GI50 [4]: 1.49 µM; TGI [4]: 2.94 µM; GI50 [5]: 2.5 µM; TGI [5]: 6.54 µM; GI50 [6]: 9.85 µM; TGI [6]: > 100 µM; GI50 [7]: 2.17 µM; TGI [7]: 5.07 µM; GI50 [8]: 2.18 µM; TGI [8]: 5.03 µM; GI50 [9]: 2.91 µM; TGI [9]: > 100 µM; GI50 [10]: 2.49 µM; TGI [10]: > 100 µM; GI50 [11]: 3.83 µM; TGI [11]: > 100 µM; GI50 [12]: 1.64 µM; TGI [12]: 3.13 µM; GI50 [13]: 2.89 µM; TGI [13]: > 100 µM; GI50 [14]: 2.43 µM; TGI [14]: 6.25 µM; GI50 [15]: 2.55 µM; TGI [15]: 7.04 µM; GI50 [16]: 1.72 µM; TGI [16]: 3.94 µM; GI50 [17]: 2.11 µM; TGI [17]: 5.14 µM; GI50 [18]: 2.33 µM; TGI [18]: 7.92 µM; GI50 [19]: 2.63 µM; TGI [19]: 7.26 µM; GI50 [20]: 2.45 µM; TGI [20]: > 100 µM; GI50 [21]: 2.01 µM; TGI [21]: 4.85 µM; GI50 [22]: 1.68 µM; TGI [22]: 3.28 µM; GI50 [23]: 2.83 µM; TGI [23]: > 100 µM; GI50 [24]: 1.62 µM; TGI [24]: 3.08 µM; GI50 [25]: 2.31 µM; TGI [25]: 6.08 µM; GI50 [26]: 3.75 µM; TGI [26]: > 100 µM; GI50 [27]: 1.74 µM; TGI [27]: 3.23 µM; GI50 [28]: 1.72 µM; TGI [28]: 3.86 µM; GI50 [29]: 2.86 µM; TGI [29]: > 100 µM; GI50 [30]: 2.19 µM; TGI [30]: 97.5 µM; GI50 [31]: 1.99 µM; TGI [31]: 5.55 µM; GI50 [32]: 1.69 µM; TGI [32]: 3.21 µM; GI50 [33]: 3.02 µM; TGI [33]: > 100 µM; GI50 [34]: 1.34 µM; TGI [34]: 2.86 µM; GI50 [35]: 3.5 µM; TGI [35]: > 100 µM; GI50 [36]: 2.31 µM; TGI [36]: > 100 µM; GI50 [37]: 1.62 µM; TGI [37]: 3.07 µM; GI50 [38]: 2.19 µM; TGI [38]: 4.74 µM; GI50 [39]: 2.46 µM; TGI [39]: 6.7 µM; GI50 [40]: 2.12 µM; TGI [40]: 5.09 µM; GI50 [41]: 1.49 µM; TGI [41]: 2.85 µM; GI50 [42]: 2.7 µM; TGI [42]: 8.39 µM; GI50 [43]: 2.04 µM; TGI [43]: 5.18 µM; GI50 [44]: 3.7 µM; TGI [44]: > 100 µM; GI50 [45]: 2.32 µM; TGI [45]: > 100 µM; GI50 [46]: 2.9 µM; TGI [46]: > 100 µM; GI50 [47]: 1.86 µM; TGI [47]: 3.73 µM

`CC1=NN(C(=O)c2ccc(Cl)cc2)C(=O)C1N=Nc1ccc(S(=O)(=O)Nc2ncccn2)cc1` (stereo not drawn) was tested. Which TGI [1] did it give?
Its TGI is 5.11 µM.

And the TGI [2]?
Its TGI is > 100 µM.

What about the TGI [3] of the same molecule?
The TGI was > 100 µM.

And the TGI [4]?
Its TGI is > 100 µM.

And the TGI [48]?
The TGI was > 100 µM.

What about the TGI [5] of the same molecule?
Its TGI is > 100 µM.

And the TGI [49]?
Its TGI is > 100 µM.

What about the TGI [6] of the same molecule?
The TGI was > 100 µM.

What about the TGI [7] of the same molecule?
The TGI was > 100 µM.

And the TGI [8]?
The TGI was > 100 µM.

What about the TGI [9] of the same molecule?
The TGI was > 100 µM.

And the TGI [10]?
Its TGI is > 100 µM.

And the TGI [11]?
Its TGI is > 100 µM.

What about the TGI [50] of the same molecule?
Its TGI is > 100 µM.

What about the TGI [12] of the same molecule?
The TGI was > 100 µM.

And the TGI [13]?
Its TGI is > 100 µM.

And the TGI [15]?
Its TGI is > 100 µM.

What about the TGI [51] of the same molecule?
Its TGI is > 100 µM.

And the TGI [16]?
Its TGI is > 100 µM.

And the TGI [17]?
Its TGI is > 100 µM.

What about the TGI [18] of the same molecule?
The TGI was > 100 µM.

And the TGI [19]?
Its TGI is > 100 µM.

What about the TGI [21] of the same molecule?
The TGI was > 100 µM.

And the TGI [22]?
The TGI was > 100 µM.

And the TGI [23]?
The TGI was > 100 µM.

And the TGI [24]?
Its TGI is > 100 µM.

What about the TGI [52] of the same molecule?
The TGI was > 100 µM.

What about the TGI [53] of the same molecule?
The TGI was > 100 µM.

And the TGI [25]?
Its TGI is > 100 µM.

What about the TGI [26] of the same molecule?
The TGI was > 100 µM.

And the TGI [27]?
The TGI was > 100 µM.

And the TGI [28]?
Its TGI is 2.07 µM.

What about the TGI [29] of the same molecule?
The TGI was > 100 µM.

What about the TGI [30] of the same molecule?
Its TGI is > 100 µM.

And the TGI [54]?
The TGI was > 100 µM.

And the TGI [31]?
Its TGI is > 100 µM.

And the TGI [32]?
The TGI was > 100 µM.

And the TGI [55]?
The TGI was > 100 µM.

What about the TGI [33] of the same molecule?
Its TGI is > 100 µM.

What about the TGI [34] of the same molecule?
The TGI was > 100 µM.

What about the TGI [35] of the same molecule?
Its TGI is > 100 µM.

What about the TGI [36] of the same molecule?
The TGI was > 100 µM.

What about the TGI [37] of the same molecule?
The TGI was > 100 µM.

And the TGI [38]?
The TGI was > 100 µM.

What about the TGI [39] of the same molecule?
Its TGI is > 100 µM.

And the TGI [40]?
Its TGI is > 100 µM.

What about the TGI [41] of the same molecule?
Its TGI is > 100 µM.

What about the TGI [42] of the same molecule?
The TGI was > 100 µM.

And the TGI [43]?
Its TGI is > 100 µM.

What about the TGI [44] of the same molecule?
Its TGI is > 100 µM.

And the TGI [45]?
Its TGI is > 100 µM.

What about the TGI [56] of the same molecule?
The TGI was > 100 µM.

What about the TGI [46] of the same molecule?
Its TGI is > 100 µM.

What about the TGI [47] of the same molecule?
Its TGI is > 100 µM.
